Read-outs that look alike come from different tables or passages of the source.
Experiments:
[1] = in vivo; cited from earlier work
[2] = human, in vivo
[3] = human, in vivo; remark: listed apart in the source

| SMILES | adverse events with an incidence less than 1% [1] | common adverse reactions with an incidence greater than 1% [1] | Lambda z [2] [h⁻¹] | AUCextrap ([2]; im, 1.5 mg) [%] | Cmax/D ([2]; im, 1.5 mg) [ng/mL/mg] | λz [3] [h⁻¹] | AUCextrap ([3]; im, 2 mg) [%] | Cmax/Dose ([3]; im, 2 mg) [ng/mL/mg] |
| --- | --- | --- | --- | --- | --- | --- | --- | --- |
| C=C1CC[C@@]2(O)[C@H]3Cc4ccc(O)c5c4[C@@]2(CCN3CC2CC2)[C@H]1O5 [Nalmefene, 17-cyclopropylmethyl-4,5α-epoxy-6-methylenemorphinan-3,14-diol] | bradycardia, arrhythmia, diarrhea, dry mouth, somnolence, depression, agitation, nervousness, tremor, confusion, withdrawal syndrome, myoclonus, pharyngitis, pruritus, and urinary retention | nausea, vomiting, tachycardia, hypertension, postoperative pain, fever, dizziness, headache, chills, hypotension, and vasodilation | 0.094 | 22.6 | 1.12 |  |  |  |
| O=C1CC[C@@]2(O)[C@H]3Cc4ccc(O)c5c4[C@@]2(CCN3CC2CC2)[C@H]1O5 [Naltrexone, 17-(cyclopropylmethyl)-4,5α-epoxy-3,14-dihydroxymorphinan-6-one] |  |  |  |  |  | 0.361 | 1.01 | 2.27 |

— patent US20210401827A1 (priority 2018, published 2021)
